Measured values taken from patent publication US20070155679A1, “USE OF BR[…] THE TREATMENT OF […] ASSOCIATED WITH H[…] NOVEL MEDICAMENT COMBINATIONS” (priority 2000, published 2007).

Test system: hypertrophic cardiomyopathy
Assay: Cat with severe hypertrophic cardiomyopathy treated with cilobradine
Format: in vivo
Conditions: 0.3 mg/kg per os, 2x daily
Description: The new use of the bradycardiac substances according to the invention was investigated with the if channel blocker cilobradine by way of example, using the following method:
The hypertrophic cardiomyopathy in the cat serves as a model for the corresponding disease in humans (Kittleson et al., Circulation 91, 3172-3180 (1999)).

SMILES: COc1ccc(CCN2CCC[C@H](CN3CCc4cc(OC)c(OC)cc4CC3=O)C2)cc1OC [cilobradine]
- clinical symptoms (relief from pain, normal ECG, return of normal physiological activity pattern) (cat with severe hypertrophic cardiomyopathy): significant improvement in clinical symptoms
- myocardial hypertrophy at follow-up (cat, follow-up after one year and after about 2 years' treatment): regression in myocardial hypertrophy
